From PMC5218480 (PLoS ONE, 2017)

Tested on: MV-4-11 cells
Test: Gene expression microarray analysis (Affymetrix PrimeView) and GSEA
Format: cell-based, human
Set-up: RFU PODN (11730768_x_at) / Fold change /veh PODN (11730768_x_at) / RFU LINC00158 (11744669_a_at) / Fold change /veh LINC00158 (11744669_a_at) / RFU DUSP10 (11751237_a_at) / Fold change /veh DUSP10 (11751237_a_at) / RFU ID3 (11757404_x_at) / Fold change /veh ID3 (11757404_x_at) / RFU PLEKHG5 (11737974_s_at) / Fold change /veh PLEKHG5 (11737974_s_at) / RFU LRRC4B (11730491_at) / Fold change /veh LRRC4B (11730491_at) / RFU GIMAP4 (11747438_a_at) / Fold change /veh GIMAP4 (11747438_a_at) / RFU KRT8 (11758183_x_at) / Fold change /veh KRT8 (11758183_x_at) / RFU CNN1 (11734310_a_at) / Fold change /veh CNN1 (11734310_a_at) / RFU VPS37D (11726825_at) / Fold change /veh VPS37D (11726825_at) / RFU C10orf10 (11716522_x_at) / Fold change /veh C10orf10 (11716522_x_at) / RFU KIR2DL2 /// KIR2DL4 /// KIR2DL5A /// KIR2DL5B /// KIR2DS1 /// KIR2DS2 /// KIR2DS3 /// KIR2DS4 /// KIR3DL3 /// KIR3DL3 /// KIR3DS1 (11738374_at) / Fold change /veh KIR2DL2 /// KIR2DL4 /// KIR2DL5A /// KIR2DL5B /// KIR2DS1 /// KIR2DS2 /// KIR2DS3 /// KIR2DS4 /// KIR3DL3 /// KIR3DL3 /// KIR3DS1 (11738374_at) / RFU C1QL1 (11718748_at) / Fold change /veh C1QL1 (11718748_at) / RFU TMPRSS4 (11747572_a_at) / Fold change /veh TMPRSS4 (11747572_a_at) / RFU HAMP (11756126_x_at) / Fold change /veh HAMP (11756126_x_at) / RFU RNFT2 (11725882_a_at) / Fold change /veh RNFT2 (11725882_a_at) / RFU NR4A2 (11747474_a_at) / Fold change /veh NR4A2 (11747474_a_at) / RFU ABCC12 (11746883_a_at) / Fold change /veh ABCC12 (11746883_a_at) / RFU TMEM136 (11760407_x_at) / Fold change /veh TMEM136 (11760407_x_at) / RFU CLDN22 /// WWC2 (11732394_at) / Fold change /veh CLDN22 /// WWC2 (11732394_at) / RFU HLA-DPB1 (11760878_x_at) / Fold change /veh HLA-DPB1 (11760878_x_at) / RFU SPINT1 (11716480_a_at) / Fold change /veh SPINT1 (11716480_a_at) / RFU GAP43 (11754022_s_at) / Fold change /veh GAP43 (11754022_s_at) / RFU A4GNT (11735810_at) / Fold change /veh A4GNT (11735810_at) / RFU PRB3 (11715151_x_at) / Fold change /veh PRB3 (11715151_x_at) / RFU TUBB4B (11761932_at) / Fold change /veh TUBB4B (11761932_at) / RFU CAPN14 (11732068_a_at) / Fold change /veh CAPN14 (11732068_a_at) / RFU TMCC2 (11721928_a_at) / Fold change /veh TMCC2 (11721928_a_at) / RFU IRGQ (11745062_a_at) / Fold change /veh IRGQ (11745062_a_at) / RFU FAM174B (11720279_a_at) / Fold change /veh FAM174B (11720279_a_at) / RFU TMPRSS4 (11748680_a_at) / Fold change /veh TMPRSS4 (11748680_a_at) / RFU FAM212B (11763350_a_at) / Fold change /veh FAM212B (11763350_a_at) / RFU PLEKHG5 (11743358_a_at) / Fold change /veh PLEKHG5 (11743358_a_at) / RFU ZSCAN30 (11745921_a_at) / Fold change /veh ZSCAN30 (11745921_a_at) / RFU CMKLR1 (11741424_a_at) / Fold change /veh CMKLR1 (11741424_a_at) / RFU LOC101060620 /// MAPK8IP1 (11723275_at) / Fold change /veh LOC101060620 /// MAPK8IP1 (11723275_at) / RFU SPTSSB (11747773_x_at) / Fold change /veh SPTSSB (11747773_x_at) / RFU PRSS12 (11739890_at) / Fold change /veh PRSS12 (11739890_at) / RFU BIN1 (11741810_x_at) / Fold change /veh BIN1 (11741810_x_at) / RFU WNT11 (11732464_a_at) / Fold change /veh WNT11 (11732464_a_at) / RFU C10orf10 (11716521_a_at) / Fold change /veh C10orf10 (11716521_a_at) / RFU C5orf56 (11738089_at) / Fold change /veh C5orf56 (11738089_at) / RFU CYB561 (11721691_x_at) / Fold change /veh CYB561 (11721691_x_at) / RFU ANKRD19P (11752326_a_at) / Fold change /veh ANKRD19P (11752326_a_at) / RFU OR2T12 /// OR2T33 /// OR2T8 (11738714_s_at) / Fold change /veh OR2T12 /// OR2T33 /// OR2T8 (11738714_s_at) / RFU VCAN (11748164_a_at) / Fold change /veh VCAN (11748164_a_at) / RFU JSRP1 (11732532_at) / Fold change /veh JSRP1 (11732532_at) / RFU KRTAP10-11 (11738290_x_at) / Fold change /veh KRTAP10-11 (11738290_x_at) / RFU MYO3A (11730013_a_at) / Fold change /veh MYO3A (11730013_a_at) / RFU EBF3 (11725865_a_at) / Fold change /veh EBF3 (11725865_a_at) / RFU CAMK2N1 (11719241_x_at) / Fold change /veh CAMK2N1 (11719241_x_at) / RFU C5orf56 (11738088_a_at) / Fold change /veh C5orf56 (11738088_a_at) / RFU OLFML3 (11715873_a_at) / Fold change /veh OLFML3 (11715873_a_at) / RFU LOC100653217 /// NTM (11731650_a_at) / Fold change /veh LOC100653217 /// NTM (11731650_a_at) / RFU MAPK11 (11762145_a_at) / Fold change /veh MAPK11 (11762145_a_at) / RFU FIZ1 (11724087_x_at) / Fold change /veh FIZ1 (11724087_x_at) / RFU OASL (11726364_x_at) / Fold change /veh OASL (11726364_x_at) / RFU SOX15 (11748057_x_at) / Fold change /veh SOX15 (11748057_x_at) / RFU CD79A (11719716_a_at) / Fold change /veh CD79A (11719716_a_at) / RFU HIST1H1D (11736915_at) / Fold change /veh HIST1H1D (11736915_at) / RFU CASKIN2 (11723855_a_at) / Fold change /veh CASKIN2 (11723855_a_at) / RFU LOC730098 (11760151_x_at) / Fold change /veh LOC730098 (11760151_x_at) / RFU OR4N2 (11742367_at) / Fold change /veh OR4N2 (11742367_at) / RFU PRRT2 (11749266_a_at) / Fold change /veh PRRT2 (11749266_a_at) / RFU SNX32 (11753110_a_at) / Fold change /veh SNX32 (11753110_a_at) / RFU CDHR5 (11726645_a_at) / Fold change /veh CDHR5 (11726645_a_at) / RFU RCAN1 (11760418_a_at) / Fold change /veh RCAN1 (11760418_a_at) / RFU FAM167A (11723789_a_at) / Fold change /veh FAM167A (11723789_a_at) / RFU FAM26E (11764081_at) / Fold change /veh FAM26E (11764081_at) / RFU ISYNA1 (11749810_s_at) / Fold change /veh ISYNA1 (11749810_s_at) / RFU ACY1 (11761880_at) / Fold change /veh ACY1 (11761880_at) / RFU 11764098_at / Fold change /veh 11764098_at / RFU SAMD14 (11745864_x_at) / Fold change /veh SAMD14 (11745864_x_at) / RFU NPB (11741838_a_at) / Fold change /veh NPB (11741838_a_at) / RFU TMPRSS6 (11731388_a_at) / Fold change /veh TMPRSS6 (11731388_a_at) / RFU KRTAP10-2 (11738614_at) / Fold change /veh KRTAP10-2 (11738614_at) / RFU ARHGAP8 /// PRR5-ARHGAP8 (11727945_x_at) / Fold change /veh ARHGAP8 /// PRR5-ARHGAP8 (11727945_x_at) / RFU KRTAP5-7 /// NADSYN1 (11734609_at) / Fold change /veh KRTAP5-7 /// NADSYN1 (11734609_at) / RFU RASL12 (11751679_a_at) / Fold change /veh RASL12 (11751679_a_at) / RFU CDKN2B (11736163_a_at) / Fold change /veh CDKN2B (11736163_a_at) / RFU PRF1 (11729649_at) / Fold change /veh PRF1 (11729649_at) / RFU, ZNF638 /// ZNF638-IT1 / Fold change vs veh, ZNF638 /// ZNF638-IT1 / RFU, PANK3 / Fold change vs veh, PANK3 / RFU, SH3YL1 / Fold change vs veh, SH3YL1 / RFU, ZEB2 / Fold change vs veh, ZEB2 / RFU, NRIP1 / Fold change vs veh, NRIP1 / RFU, PTTG1IP / Fold change vs veh, PTTG1IP / RFU, CAPN2 / Fold change vs veh, CAPN2 / RFU, MED14 / Fold change vs veh, MED14 / RFU, SNORA58 / Fold change vs veh, SNORA58 / RFU, C1orf63 / Fold change vs veh, C1orf63 / RFU, LRRFIP1 / Fold change vs veh, LRRFIP1 / RFU, NDUFAF7 / Fold change vs veh, NDUFAF7 / RFU, SLC12A2 / Fold change vs veh, SLC12A2 / RFU, IBTK / Fold change vs veh, IBTK / RFU, ESF1 / Fold change vs veh, ESF1 / Fold change vs veh, TMEM50B / RFU, TAOK1 / Fold change vs veh, TAOK1 / RFU, ACBD3 / Fold change vs veh, ACBD3 / RFU, TMA16 / Fold change vs veh, TMA16 / RFU, RWDD3 / Fold change vs veh, RWDD3 / RFU, BCAT1 / Fold change vs veh, BCAT1 / RFU, EDEM3 / Fold change vs veh, EDEM3 / RFU, TMEM33 / Fold change vs veh, TMEM33 / RFU, WDR75 / Fold change vs veh, WDR75 / RFU, AHCTF1 / Fold change vs veh, AHCTF1 / RFU, TFRC / Fold change vs veh, TFRC / RFU, ZDHHC17 / Fold change vs veh, ZDHHC17 / RFU, NOM1 / Fold change vs veh, NOM1 / RFU, ARL8B / Fold change vs veh, ARL8B / RFU, ZBTB11 / Fold change vs veh, ZBTB11 / RFU, TAMM41 / Fold change vs veh, TAMM41 / RFU, KIAA1704 /// LOC100996395 / Fold change vs veh, KIAA1704 /// LOC100996395 / RFU, ING1 / Fold change vs veh, ING1 / RFU, TRMT61B / Fold change vs veh, TRMT61B / RFU, FUBP3 / Fold change vs veh, FUBP3 / RFU, TP53 / Fold change vs veh, TP53 / RFU, TNKS2 / Fold change vs veh, TNKS2 / RFU, ZFP14 / Fold change vs veh, ZFP14 / RFU, ACTR2 / Fold change vs veh, ACTR2 / RFU, PPP3R1 / Fold change vs veh, PPP3R1 / RFU, PIK3R1 / Fold change vs veh, PIK3R1 / RFU, HNRNPA1 / Fold change vs veh, HNRNPA1 / RFU, RNF170 / Fold change vs veh, RNF170 / RFU, ZNF28 / Fold change vs veh, ZNF28 / RFU, RNGTT / Fold change vs veh, RNGTT / RFU, OGT / Fold change vs veh, OGT / RFU, BRD1 / Fold change vs veh, BRD1 / RFU, MARS / Fold change vs veh, MARS / RFU, ZNF655 / Fold change vs veh, ZNF655 / RFU, FAHD1 / Fold change vs veh, FAHD1 / RFU, BDP1 / Fold change vs veh, BDP1 / RFU, LRRCC1 / Fold change vs veh, LRRCC1 / RFU, ARID1A / Fold change vs veh, ARID1A / RFU, ZNF146 / Fold change vs veh, ZNF146 / RFU, ZNF330 / Fold change vs veh, ZNF330 / RFU, GPN3 / Fold change vs veh, GPN3 / RFU, C9orf123 / Fold change vs veh, C9orf123 / RFU, N4BP2L2 / Fold change vs veh, N4BP2L2 / RFU, ARFIP1 / Fold change vs veh, ARFIP1 / RFU, FAM179B / Fold change vs veh, FAM179B / RFU, BCL10 / Fold change vs veh, BCL10 / RFU, UHRF1BP1L / Fold change vs veh, UHRF1BP1L / RFU, BET1 / Fold change vs veh, BET1 / RFU, CNOT2 / Fold change vs veh, CNOT2 / RFU, ZNF268 / Fold change vs veh, ZNF268 / Fold change vs veh, ZNF507 / RFU, DGCR2 / Fold change vs veh, DGCR2 / RFU, WDSUB1 / Fold change vs veh, WDSUB1 / Fold change vs veh, HSP90B1 /// MIR3652 / RFU, ADSS / Fold change vs veh, ADSS / RFU, GK / Fold change vs veh, GK / RFU, ZNF148 / Fold change vs veh, ZNF148 / RFU, TAF9 / Fold change vs veh, TAF9 / RFU, SLC1A5 / Fold change vs veh, SLC1A5 / RFU, SLMO2 / Fold change vs veh, SLMO2 / RFU, ABCC4 / Fold change vs veh, ABCC4 / RFU, LOC101060439 /// RAP1B / Fold change vs veh, LOC101060439 /// RAP1B / RFU, RFX7 / Fold change vs veh, RFX7 / RFU, GTPBP10 / Fold change vs veh, GTPBP10 / RFU, CNEP1R1 / Fold change vs veh, CNEP1R1 / RFU, BIVM-ERCC5 /// ERCC5 / Fold change vs veh, BIVM-ERCC5 /// ERCC5 / RFU, ILF3 / Fold change vs veh, ILF3 / RFU 11762660_at / Fold change /veh 11762660_at / RFU VCAN (11757783_s_at) / Fold change /veh VCAN (11757783_s_at) / RFU DDX43 (11728927_at) / Fold change /veh DDX43 (11728927_at) / RFU KRT8 (11758188_x_at) / Fold change /veh KRT8 (11758188_x_at) / RFU NKD1 (11759106_at) / Fold change /veh NKD1 (11759106_at) / RFU SRD5A1 (11742802_a_at) / Fold change /veh SRD5A1 (11742802_a_at) / RFU TPSAB1 /// TPSB2 (11721975_s_at) / Fold change /veh TPSAB1 /// TPSB2 (11721975_s_at) / RFU GSTM3 (11746129_a_at) / Fold change /veh GSTM3 (11746129_a_at) / RFU IL23R (11737362_x_at) / Fold change /veh IL23R (11737362_x_at) / RFU TMEM51 (11727254_a_at) / Fold change /veh TMEM51 (11727254_a_at) / RFU PIWIL2 (11732686_x_at) / Fold change /veh PIWIL2 (11732686_x_at) / RFU ORM1 (11744905_x_at) / Fold change /veh ORM1 (11744905_x_at) / RFU CCDC152 (11743942_at) / Fold change /veh CCDC152 (11743942_at) / RFU ECM1 (11717891_a_at) / Fold change /veh ECM1 (11717891_a_at) / RFU IL23R (11748794_a_at) / Fold change /veh IL23R (11748794_a_at) / RFU TNFAIP8L3 (11732012_x_at) / Fold change /veh TNFAIP8L3 (11732012_x_at) / RFU MBOAT4 (11741988_at) / Fold change /veh MBOAT4 (11741988_at) / RFU 11764193_at / Fold change /veh 11764193_at / RFU TMEM53 (11763286_at) / Fold change /veh TMEM53 (11763286_at) / RFU MAGEB2 (11727129_at) / Fold change /veh MAGEB2 (11727129_at) / RFU TMEM200A (11744735_a_at) / Fold change /veh TMEM200A (11744735_a_at) / RFU CCDC152 (11751479_a_at) / Fold change /veh CCDC152 (11751479_a_at) / RFU FAM211A (11726209_a_at) / Fold change /veh FAM211A (11726209_a_at) / RFU RGS16 (11746705_a_at) / Fold change /veh RGS16 (11746705_a_at) / RFU VCAN (11755009_s_at) / Fold change /veh VCAN (11755009_s_at) / RFU RHOB (11743442_s_at) / Fold change /veh RHOB (11743442_s_at) / RFU RGS16 (11720943_a_at) / Fold change /veh RGS16 (11720943_a_at) / RFU RGS16 (11720944_at) / Fold change /veh RGS16 (11720944_at) / RFU, VPS4B / Fold change vs veh, VPS4B / RFU, CREB1 / Fold change vs veh, CREB1 / RFU, DNAJC13 / Fold change vs veh, DNAJC13 / RFU, GNAQ / Fold change vs veh, GNAQ / RFU, CDK5R1 / Fold change vs veh, CDK5R1 / RFU, ZRANB3 / Fold change vs veh, ZRANB3 / RFU, CUL4A / Fold change vs veh, CUL4A / RFU, CCNY / Fold change vs veh, CCNY / RFU, UFL1 / Fold change vs veh, UFL1 / RFU, COG3 / Fold change vs veh, COG3 / RFU, DIAPH2 / Fold change vs veh, DIAPH2 / RFU, SKA2 / Fold change vs veh, SKA2 / RFU, AFF3 / Fold change vs veh, AFF3 / RFU, LMF1 / Fold change vs veh, LMF1 / RFU, IPO11 / Fold change vs veh, IPO11 / RFU, DFFB / Fold change vs veh, DFFB / RFU, FOXP1 / Fold change vs veh, FOXP1 / RFU, CARD8 / Fold change vs veh, CARD8 / RFU, STRN3 / Fold change vs veh, STRN3 / RFU, ADK / Fold change vs veh, ADK / RFU, RASSF2 / Fold change vs veh, RASSF2 / RFU, WIPF1 / Fold change vs veh, WIPF1 / RFU, LARP1B / Fold change vs veh, LARP1B / RFU, RASA1 / Fold change vs veh, RASA1 / RFU, RB1 / Fold change vs veh, RB1 / RFU, PPFIA1 / Fold change vs veh, PPFIA1 / RFU, MAT2A / Fold change vs veh, MAT2A / RFU, CCT5 / Fold change vs veh, CCT5 / RFU, WDR92 / Fold change vs veh, WDR92 / RFU, CUX1 / Fold change vs veh, CUX1 / RFU, TTC7A / Fold change vs veh, TTC7A / RFU, TMEM135 / Fold change vs veh, TMEM135 / RFU, DEPTOR / Fold change vs veh, DEPTOR / RFU, CPM / Fold change vs veh, CPM / RFU, DNAJB6 / Fold change vs veh, DNAJB6 / RFU, CACNA2D3 / Fold change vs veh, CACNA2D3 / RFU, DTX4 / Fold change vs veh, DTX4 / RFU, TFCP2 / Fold change vs veh, TFCP2 / RFU, GMCL1 /// GMCL1P1 / Fold change vs veh, GMCL1 /// GMCL1P1 / RFU, AEBP2 / Fold change vs veh, AEBP2 / RFU, SNHG1 /// SNORD22 /// SNORD25 /// SNORD26 /// SNORD27 /// SNORD28 /// SNORD29 /// SNORD31 / Fold change vs veh, SNHG1 /// SNORD22 /// SNORD25 /// SNORD26 /// SNORD27 /// SNORD28 /// SNORD29 /// SNORD31 / Fold change (Aza/veh), C12orf56 (ProbeSet 11735607_a_at) / Fold change (ACY-1035/veh), C12orf56 (ProbeSet 11735607_a_at) / Fold change (Aza/veh), FGFR1OP (ProbeSet 11751329_s_at) / Fold change (ACY-1035/veh), FGFR1OP (ProbeSet 11751329_s_at) / Fold change (Aza/veh), VPS36 (ProbeSet 11739960_a_at) / Fold change (ACY-1035/veh), VPS36 (ProbeSet 11739960_a_at) / RFU SYPL1 (11715823_x_at) / Fold change /veh SYPL1 (11715823_x_at) / RFU IGFBP7 (11715501_s_at) / Fold change /veh IGFBP7 (11715501_s_at) / RFU REEP3 (11722064_at) / Fold change /veh REEP3 (11722064_at) / RFU IGLL1 (11728026_x_at) / Fold change /veh IGLL1 (11728026_x_at): dose or concentration left out as unconfirmed
Conditions: MV-4-11 cells, 48 hours

In the case of Nc1ccc(-c2cccs2)cc1NC(=O)c1ccc2c(c1)cc(C1CC1)n2CCN1CCOCC1 [ACY-1035], the “RFU 11762660_at” value is reported as 11.56 RFU.
